Results published in US11597909B2, “Method for the formation of renal tubules” (LEIBNIZ-INSTITUT FÜR POLYMER-FORSCHUNG DRESDEN E.V., priority 2016, dated 2023).

Key:
[1] = test system: tubule organoids from HK-2 cells; test: Apoptosis by caspase-3 immunocytochemistry in tubule organoids; format: cell-based, human; details: incubation with cisplatin, HK-2 tubule organoids
From the text: (§1) The present invention can be used as an assay for nephrotoxicity.

[2] = test system: tubule organoids from HK-2 cells; test: Expression of kidney injury biomarker KIM-1 in tubule structures; format: cell-based, human; details: incubation with cisplatin, HK-2 tubule structures
From the text: as §1

N.N.[Cl][Pt][Cl] [cisplatin]
apoptosis (cell death), caspase-3 immunocytochemistry [1]: increase in apoptosis | expression of kidney injury biomarker KIM 1 [2]: expressed the injury-indicating kidney biomarker KIM 1
